{"source": "patent US20250262241A1", "about": "“METHODS TO IMPROVE STABILITY OF VIRUS TRANSDUCTION OF y8 T CELLS AND APPLICATIONS THEREOF” (UNICET BIOTECH CO. LLC., priority 2021, published 2025)", "key": {"[1]": {"test_system": "γδ T cell products cultured from PBMC", "format": "cell-based, human", "conditions": "0.6 μM BX795, after 12 Days in vitro culture", "experimental": "(§1) Wash the cells once with PBS and then staining the cells with antibodies diluted in FACS buffer (PBS+1% FBS+2.5 mM EDTA) at 4° C. for 30 min. The common volume of incubated buffer was 50 μL for 2×10^cells.\n(§2) After incubation, washed the cells with FACS buffer two times and then resuspended the cells in 200 ul FACS buffer and calculated the data by FACSCalibur (BD Biosciences). The antibodies used for γδ2 T cells were: APC anti-human CD3 (Biolegend, 300412), BV421 anti-human TCR Vδ2 (Biolegend, 331428).\nThe calculated cell types included γδ2 T, γδ2 CD56+ T, γδ1 T, αβT, NKT, T helper, cytotoxic T, B and NK cells."}, "γδ2 T cells [2]": {"test_system": "γδ2 T cells", "format": "cell-based, human", "conditions": "0.6 uM", "experimental": "(§3) The plates were incubated at 37° C., 5% CO2."}, "γδ2 T cells [3]": {"test_system": "γδ2 T cells", "assay": "Differentiation of γδ2 T cells cultured with/without BX795 (flow cytometry)", "format": "cell-based, human", "experimental": "as §1, §2\nOn the other hand, the terminator γδ2 T cell percentage decreased from 2.595% to around 2%."}, "IKKε": {"biological_target": "T1, IKKε (Homo sapiens, UniProt Q14164)", "T1 sequence (Q14164 1-716)": "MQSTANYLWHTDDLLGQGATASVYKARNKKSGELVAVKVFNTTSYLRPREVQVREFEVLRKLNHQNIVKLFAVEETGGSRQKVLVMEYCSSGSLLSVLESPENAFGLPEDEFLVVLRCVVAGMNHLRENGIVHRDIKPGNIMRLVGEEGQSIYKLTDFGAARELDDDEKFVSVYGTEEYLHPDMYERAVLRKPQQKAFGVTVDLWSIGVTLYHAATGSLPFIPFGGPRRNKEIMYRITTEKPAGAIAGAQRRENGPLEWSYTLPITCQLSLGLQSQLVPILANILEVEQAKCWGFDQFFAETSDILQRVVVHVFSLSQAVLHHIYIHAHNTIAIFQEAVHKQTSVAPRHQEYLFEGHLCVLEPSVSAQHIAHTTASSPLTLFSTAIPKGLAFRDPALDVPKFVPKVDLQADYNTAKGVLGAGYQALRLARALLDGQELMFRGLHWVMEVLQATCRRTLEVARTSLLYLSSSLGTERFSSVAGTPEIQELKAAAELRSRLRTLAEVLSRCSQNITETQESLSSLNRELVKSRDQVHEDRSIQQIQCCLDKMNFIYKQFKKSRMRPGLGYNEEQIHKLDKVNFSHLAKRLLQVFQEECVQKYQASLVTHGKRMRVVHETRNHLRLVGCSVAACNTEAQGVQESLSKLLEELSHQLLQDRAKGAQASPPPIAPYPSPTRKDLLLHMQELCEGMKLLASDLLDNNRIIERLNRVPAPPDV", "conditions": "cited from earlier work"}, "γδ2 T cells [4]": {"test_system": "γδ2 T cells", "assay": "Exhausted marker expression of γδ2 T cells cultured with/without BX795", "format": "cell-based, human", "experimental": "as §1, §2"}, "γδ1 T cells": {"test_system": "γδ1 T cells", "assay": "CAR related lentivirus transduction of γδ1 T cells with small inhibitors", "format": "cell-based, human", "conditions": "0.06 uM; control finally around 2%", "experimental": "(§4) For lentivirus transduction, 1×10^CFU lentivirus diluted in 200 ul PBS were added in a 24-well plate which were pre-coated with RetroNectin reagent (Takara) and centrifugated by 2,000 g for 2 hours at 32° C. After centrifugation, removed the supernatant and washed the plate with PBS three times slightly.\nas §3\nTo test the application of these small molecule on improving the transduction rate of δδ1 T cells. We evaluated the transduction rate of δδ1 T cells with/without different dosage of small molecules."}, "PDK1": {"biological_target": "T2, PDK1 (Homo sapiens, UniProt O15530)", "T2 sequence (O15530 1-556)": "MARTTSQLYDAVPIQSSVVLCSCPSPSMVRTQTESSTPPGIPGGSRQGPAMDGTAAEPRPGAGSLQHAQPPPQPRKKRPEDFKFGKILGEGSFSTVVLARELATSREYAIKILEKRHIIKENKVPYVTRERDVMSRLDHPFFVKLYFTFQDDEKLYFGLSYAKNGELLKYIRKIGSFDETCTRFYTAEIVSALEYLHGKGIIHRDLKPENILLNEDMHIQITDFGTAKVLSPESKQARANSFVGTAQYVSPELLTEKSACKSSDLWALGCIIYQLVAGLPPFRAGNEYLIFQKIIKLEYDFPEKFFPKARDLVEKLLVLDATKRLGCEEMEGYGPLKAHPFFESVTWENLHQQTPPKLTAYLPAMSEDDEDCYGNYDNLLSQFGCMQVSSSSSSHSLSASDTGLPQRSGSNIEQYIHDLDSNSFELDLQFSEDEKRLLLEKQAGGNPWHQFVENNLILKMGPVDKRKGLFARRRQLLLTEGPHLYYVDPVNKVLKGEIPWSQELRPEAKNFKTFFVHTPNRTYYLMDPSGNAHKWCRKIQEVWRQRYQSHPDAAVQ", "conditions": "cited from earlier work"}, "γδ2 T cells [5]": {"test_system": "γδ2 T cells", "assay": "Lentivirus (GFP) transduction of γδ2 T cells with or without BX795", "format": "cell-based, human", "experimental": "VSV-G pseudotyped lentiviral vectors were applied in this method. 1×10^7 293T cells were plated into a poly-D-lysine coated 100 mm dish. Next day the cells were transfected with 6 μg of pCDH-EF1-MCS-T2A-copGFP plasmid (Addgene, Plasmid #72263) or pCDH-EF1-CAR-T2A-copGFP plasmid modified from pCDH-EF1-MCS-T2A-copGFP, 4 μg of pspAx2 (Addgene, Plasmid #12260), 2 μg of pCMV-VSV-G (Addgene, Plasmid #8454) using 30 ug PEI transfection regents. After 8 hours of transfection, the cell culture medium was changed. The supernatant were collected 48 hours and 72 hours later. Concentrated the virus with Lenti-X™ Concentrator (Takara) and monitored the virus titers by transduction of 293T cells and stored the concentrated virus in −80° C. until further use.\nas §4, §3, §2"}}, "note": "Several values for one entry are separate records, joined by “and”; a condition that tells them apart may be missing. Equal entries are not always repeated.", "data": [{"substance": "BX795", "values": [{"measurement": "B cell (CO3−TCRVδ2−CD19+), cell percentage of total lymphocytes", "setting": "[1]", "result": "0.27% and 0.32%"}, {"measurement": "NK cell (CD3−TCRVδ2−CD56+), cell percentage of total lymphocytes", "setting": "[1]", "result": "2.66% and 2.20%"}, {"measurement": "NKT cell (CD3+TCRVδ2−TCRVδ1−TCRαβ+CD56+), cell percentage of total lymphocytes", "setting": "[1]", "result": "0.34% and 0.31%"}, {"measurement": "T helper cell (CD3+TCRVδ2−TCRVδ1− TCRαβ+CD56−CD8−CD4+), cell percentage of total lymphocytes", "setting": "[1]", "result": "5.26% and 5.40%"}, {"measurement": "cell types of the final γδ T cell products vs control group", "setting": "[1]", "result": "comparable cell types with the control group"}, {"measurement": "αβ T cell (CD3+TCRVδ2−TCRVδ1−TCRαβ+), cell percentage of total lymphocytes", "setting": "[1]", "result": "7.22% and 7.20%"}, {"measurement": "γδ2 CD56+ T cell (CD3+TCRVδ2+ CD56+), cell percentage of total lymphocytes", "setting": "[1]", "result": "1.89% and 1.69%"}, {"measurement": "γδ2 T cell (CD3+TCRVδ2+), cell percentage of total lymphocytes", "setting": "[1]", "result": "85.93% and 86.52%"}, {"measurement": "cell growth of γδ2 T", "setting": "γδ2 T cells [2]", "result": "did not influence the cell growth"}, {"measurement": "changes in differentiation of γδ2 T cell subtypes", "setting": "γδ2 T cells [3]; BX795 treatment vs control", "result": "No significant changes were found"}, {"measurement": "central memory γδ2 T cells percentage rate", "setting": "γδ2 T cells [3]; adding BX795, control 1.865%", "result": 4.225, "unit": "%"}, {"measurement": "terminator γδ2 T cell percentage", "setting": "γδ2 T cells [3]; adding BX795, control 2.595%", "result": "around 2%"}, {"measurement": "Central memory γδ2 cell (CD3+TCRVδ2+ CD27+CD45RA−), cell percentage of total lymphocytes", "setting": "γδ2 T cells [3]; cultured with BX795", "result": "3.88% and 4.57%"}, {"measurement": "Effector γδ2 T cell (CD3+TCRVδ2+ CD27−CD45RA−), cell percentage of total lymphocytes", "setting": "γδ2 T cells [3]; cultured with BX795", "result": "81.23% and 80.00%"}, {"measurement": "Terminator γδ2 T cell (CD3+TCRVδ2+ CD27−CD45RA+), cell percentage of total lymphocytes", "setting": "γδ2 T cells [3]; cultured with BX795", "result": "1.91% and 2.03%"}, {"measurement": "naive γδ2 T cell (CD3+TCRVδ2+ CD27+CD45RA+), cell percentage of total lymphocytes", "setting": "γδ2 T cells [3]; cultured with BX795", "result": "0.25% and 0.10%"}, {"measurement": "γδ2 CD226+T cell (CD3+TCRVδ2+CD226+), cell percentage of total lymphocytes", "setting": "γδ2 T cells [3]; cultured with BX795", "result": "87.25% and 86.59%"}, {"measurement": "γδ2 NKG2D+T cell (CD3+TCRVδ2+NKG2D+), cell percentage of total lymphocytes", "setting": "γδ2 T cells [3]; cultured with BX795", "result": "87.17% and 86.50%"}, {"measurement": "γδ2 T cell (CD3+TCRVδ2+), cell percentage of total lymphocytes", "setting": "γδ2 T cells [3]; cultured with BX795", "result": "87.25% and 86.68%"}, {"measurement": "IC50", "setting": "IKKε", "result": 41, "unit": "nM"}, {"measurement": "cell percentage of exhausted cell types (PD-1, LAG-3, TIGIT, TIM-3)", "setting": "γδ2 T cells [4]; BX795 treatment vs control", "result": "improved the cell percentage of all the exhausted cell types slightly"}, {"measurement": "γδ2 LAG-3+ T cell (CD3+TCRVδ2+LAG-3+), cell percentage of total lymphocytes", "setting": "γδ2 T cells [4]; cultured with BX795", "result": "85.58% and 85.77%"}, {"measurement": "γδ2 PD-1+ T cell (CD3+TCRVδ2+PD-1+), cell percentage of total lymphocytes", "setting": "γδ2 T cells [4]; cultured with BX795", "result": "11.83% and 11.17%"}, {"measurement": "γδ2 T cell (CD3+TCRVδ2+), cell percentage of total lymphocytes", "setting": "γδ2 T cells [4]; cultured with BX795", "result": "85.75% and 85.94%"}, {"measurement": "γδ2 TIGIT+ T cell (CD3+TCRVδ2+TIGIT+), cell percentage of total lymphocytes", "setting": "γδ2 T cells [4]; cultured with BX795", "result": "23.24% and 26.98%"}, {"measurement": "γδ2 TIM-3+ T cell (CD3+TCRVδ2+TIM-3+), cell percentage of total lymphocytes", "setting": "γδ2 T cells [4]; cultured with BX795", "result": "84.55% and 84.91%"}, {"measurement": "effect on transduction rate of γδ1 T cells", "setting": "γδ1 T cells", "result": "could improve the transduction rate"}, {"measurement": "IC50", "setting": "PDK1", "result": 6, "unit": "nM"}, {"measurement": "total positive transduced γδ2 T cells", "setting": "γδ2 T cells [5]; 0.2 μM or 0.6 μM BX795", "result": "greatly increased"}, {"measurement": "final transduction rate, 2 μM compared with 0.6 μM BX795", "setting": "γδ2 T cells [5]; 2 μM BX795", "result": "not significant"}, {"measurement": "cell number of transduced γδ2 T cells", "setting": "γδ2 T cells [5]; 2 μM or 6 μM BX795, vs control group", "result": "lower than the control group"}]}]}
